Laboratory results from patent publication US20210069223A1, “USE OF COMPOUND FOR PREVENTING AND/OR TREATING OBESITY” (TCI CO., LTD., priority 2019, published 2021).

System: bone marrow stromal cells of mice (ATCC CRL-2749) differentiated into adipocytes
Assay: Promoting lipolysis: glycerol outside the cells measured by glycerol assay kit in adipocytes differentiated from bone marrow stromal cells
Format: cell-based
Details: cultured at 37° C. for 7 days, OD 540 nm, FIG. 12; for lipolysis promoted in comparison with the control group: 10 μg compound per mL in the well
Method: According to the present embodiment, bone marrow stromal cells of mice were used for testing the efficacy of the compound TC-CA-01, the compound TCI-CA-02, the compound TC-CA-03, the compound TCI-CA-04, and the compound TCI-CA-05 for prompting lipolysis. The bone marrow stromal cells of mice were purchased from American Type Culture Collection (American ATCC®), and the No. was CRL-2749M. Before differentiation, the cells were cultured in a pre-adipocyte expansion medium, including 90 vol % of an α-MEM (Minimum Essential Medium Eagle-Alpha Modification, purchased from Gibco, No. 11095080, America) cell culture medium, and 10 vol % of fetal bovine serum (purchased from Gibco, No. 10437-028, America). In addition, 1.0 vol % of penicillin-streptomycin (purchased from Gibco, No. 15140122, America) was added. A differentiation medium was used for differentiating the bone marrow stromal cells of mice, and included 90 vol % of α-MEM cell culture medium, and 10 vol % of fetal bovine serum. In addition, 1.0 vol % of penicillin-streptomycin was added.
The bone marrow stromal cells of mice were inoculated in a culture tray by 8×10^4 cells/0.5 mL of the above pre-adipocyte expansion medium in each well. Culture was performed at 37° C. for 7 days. The culture medium in each well was replaced by the above mentioned fresh differentiation medium once every 3 days during the period. After 7 days, a microscope was used to observe and confirm that the lipid droplets have formed so as to ensure the cells completely differentiated into adipocytes. […]
Then, a value of glycerol outside the cells was measured by a glycerol assay kit (purchased from Cayman Chemical, No. 10011725, America). […] This kit quantified the value of glycerol outside the cells by measuring the content of a product of a coupling enzyme reaction system capable of generating a bright purple, and used a glycerol standard in the kit to build a standard curve so as to reckon the value of the glycerol outside the cells of a sample. […]

Row | SMILES | lipolysis promoted in comparison with the control group [%] | efficacy for promoting lipolysis in comparison with the control group (result in words) (10 μg of each compound per mL in the well)
1 | C[C@@H]1O[C@@H](O[C@H]2[C@H](Oc3cc(O)c4c(c3)O[C@H](c3ccc(O)cc3)CC4=O)O[C@H](CO)[C@@H](O)[C@@H]2O)[C@H](O)[C@H](O)[C@H]1O [TCI-CA-02] | 8 | 
2 | O=C1CC(c2ccc(O)cc2)Oc2cc(O)cc(O)c21 (stereo not drawn) [TCI-CA-03, 5,7-Dihydroxy-2-(4-hydroxyphenyl) chroman-4-one] | 15 | 
3 | COc1cc(/C=C/C(=O)O)ccc1O [TCI-CA-01, 4-hydroxy-3-methoxycinnamic acid] |  | effectively promoted
